In brackets after ≈: the same amount, converted by molar mass.
Experiments:
[1] = Compound solubility in water; conditions: water; for solubility: Compound Solubility in Water
[2] = molecular target: T1, glucocerebrosidase (Gcase) (Homo sapiens, UniProt P04062); assay: Glucocerebrosidase (Gcase) activation assay, 4-methylumbelliferyl-beta-D-glucopyranoside substrate, fluorescence readout; format: biochemical; conditions: for activation at 0.1 µM / Percent Gcase Activation, 0.1 μM Test Compound: test compound at 0.1 μM; for activation at 0.1 µM: read-out: Percent Gcase Activation, 0.1 μM Test Compound; for activation at 1 µM / Percent Gcase Activation, 1 μM Test Compound: test compound at 1.0 μM; for activation at 1 µM: read-out: Percent Gcase Activation, 1 μM Test Compound
T1 construct: micellar solution containing 10 nM GCase and 100 nM saposin C
T1 sequence (P04062 40-536): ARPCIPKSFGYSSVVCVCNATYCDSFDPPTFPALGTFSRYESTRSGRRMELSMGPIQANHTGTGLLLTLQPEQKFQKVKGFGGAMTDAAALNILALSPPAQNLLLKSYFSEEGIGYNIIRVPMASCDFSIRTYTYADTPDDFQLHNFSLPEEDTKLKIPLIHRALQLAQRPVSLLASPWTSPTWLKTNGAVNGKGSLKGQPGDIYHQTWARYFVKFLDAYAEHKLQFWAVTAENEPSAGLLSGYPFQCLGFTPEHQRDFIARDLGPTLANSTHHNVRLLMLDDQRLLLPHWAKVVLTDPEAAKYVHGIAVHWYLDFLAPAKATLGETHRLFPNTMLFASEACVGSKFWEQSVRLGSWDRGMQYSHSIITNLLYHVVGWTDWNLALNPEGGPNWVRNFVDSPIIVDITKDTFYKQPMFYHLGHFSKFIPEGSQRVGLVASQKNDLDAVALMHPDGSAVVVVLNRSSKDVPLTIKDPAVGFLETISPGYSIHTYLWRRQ
Method: The ability of exemplary compounds to activate glucocerebrosidase (Gcase) was measured.
A 484 μL aliquot of a 1.0 mg/mL solution of phosphatidylserine (PS) (Sigma P7769) in chloroform was evaporated under a stream of nitrogen for 1 hour. The lipid film was dissolved over 4 minutes of vigorous vortexing in 40 mL of 176 mM K2HPO4/50 mM citric acid (pH 4.7) containing 7.5 μL of triton X-100, resulting in a mixed micellar preparation with a composition of 0.32 mM triton and 0.37 mol % PS. 4-Methylumbelliferyl-beta-D-glucopyranoside (ACROS-337025000) was dissolved in the micellar solution to a final concentration of 2 mM for use as the reaction substrate.
Test compounds were diluted to the desired concentrations with dimethylsulfoxide (DMSO) from 10 mM stocks, and 0.41 μL of the DMSO compound mixture was added to 100 μL of micellar solution containing 10 nM GCase and 100 nM saposin C (Enzo ALX-201-262-C050). Pre-incubation was allowed to occur for 30 minutes at room temperature, after which the reaction was initiated by combining 25 μL of substrate solution with 25 μL of compound/GCase/saposin mixture. The reaction proceeded for 15 minutes at room temperature and was stopped by adding 150 μL of 1M glycine, pH 12.5. The endpoint of the reaction was monitored by measuring fluorescence intensity (excitation: 365 nm; emission: 440 nm) on a SpectraMax i3 instrument (Molecular Devices). Test compounds were screened at 1.0 and 0.1 μM final concentration, and subsequent 8-point dose response curves were obtained using 3-fold dilutions from a maximum final concentration of 5 μM.

| SMILES | solubility [1] | activation at 0.1 µM [2] | activation at 1 µM [2] | Compound Solubility in Water [1] | Percent Gcase Activation, 0.1 μM Test Compound [2] | Percent Gcase Activation, 1 μM Test Compound [2] | solubility ([1]; in water) |
| --- | --- | --- | --- | --- | --- | --- | --- |
| CCO[C@H]1CC[C@H](NC(=O)c2ccn3c(C)cc(C)nc23)CC1 [III-99] | 30.5 µg/mL (≈ 96.7 µM) | < 10% | < 30% | – | – | – | – |
| Cc1cc(C)n2ccc(C(=O)NC3CCC4(CCCCO4)CC3)c2n1 (stereo not drawn) [III-113] | – | – | – | 19.7 µg/mL | * (less than 10% Gcase activation) | +++ (Gcase activation greater than 60%) | – |
| [2H]C1(NC(=O)c2ccn3c(C)ccnc23)CCCc2ccccc21 (stereo not drawn) [III-263] | – | > 20% | > 60% | – | – | – | 7.1 µg/mL (≈ 23.2 µM) |
| Cc1cc(Cl)nc2c(C(=O)Nc3ccc(-c4cocn4)cc3)ccn12 [III-38] | 0.3 µg/mL (≈ 0.85 µM) | > 20% | 30 to 60% | – | – | – | – |
| Cc1cc(C)n2ccc(C(=O)Nc3ccc(-c4cnn(C)c4)cc3)c2n1 [III-278] | – | – | – | – | *** (greater than 20% Gcase activation) | – | 0.06 µg/mL (≈ 0.174 µM) |
| Cc1cc(C)n2ccc(C(=O)Nc3ccc(-c4ccco4)cc3)c2n1 [III-276] | – | – | – | – | *** (greater than 20% Gcase activation) | +++ (Gcase activation greater than 60%) | < 0.1 µg/mL |
| CCCCCO[C@H]1CC[C@H](NC(=O)c2ccn3c(C(F)F)cc(C(F)F)nc23)CC1 [III-25] | 0.4 µg/mL (≈ 0.931 µM) | > 20% | > 60% | – | – | – | – |
| Cc1cc(C)n2ccc(C(=O)NC3CCOc4c(F)ccc(F)c43)c2n1 (stereo not drawn) [III-171] | 1.7 µg/mL (≈ 4.76 µM) | > 20% | > 60% | – | – | – | – |
| Cc1cc(C)n2ccc(C(=O)NC3CCC4(CCCCO4)C3)c2n1 (stereo not drawn) [III-85] | – | – | – | 21.3 µg/mL | * (less than 10% Gcase activation) | – | – |
| Cc1cc(C)n2ccc(C(=O)NC3CCC(C(=O)N(C)C4CC4)CC3)c2n1 (stereo not drawn) [III-135] | – | – | – | 41.1 µg/mL | * (less than 10% Gcase activation) | + (less than 30% Gcase activation) | – |
| CCCCCO[C@H]1CC[C@@H](NC(=O)c2ccn3c(C)cc(C)nc23)C1 [III-179] | 12.3 µg/mL (≈ 35.8 µM) | < 10% | > 60% | – | – | – | – |
| Cc1cc(C)n2ccc(C(=O)N[C@H]3CC[C@H](OC(C)(C)C)CC3)c2n1 [III-289] | – | 10 to 20% | > 60% | – | – | – | 17.1 µg/mL (≈ 49.8 µM) |
| CCCCCOc1ccc(NC(=O)c2ccn3c(C)cc(C)nc23)cc1 [III-273] | – | – | – | – | *** (greater than 20% Gcase activation) | +++ (Gcase activation greater than 60%) | 0.005 µg/mL (≈ 0.0142 µM) |
| Cc1cc(C)n2ccc(C(=O)NC3CCC(c4cccs4)CC3)c2n1 (stereo not drawn) [III-187] | – | > 20% | > 60% | 0.4 µg/mL | – | – | – |
| Cc1cc(C)n2ccc(C(=O)Nc3ccc4c(c3)C(n3oc(C)cc3=O)CC4)c2n1 (stereo not drawn) [III-97] | – | < 10% | 30 to 60% | – | – | – | – |
| Cc1cc(C)n2ccc(C(=O)NC(C)(C)c3ccccc3Cl)c2n1 [III-79] | – | 10 to 20% | > 60% | – | – | – | – |
| COc1cc(C)nc2c(C(=O)Nc3ccc(-c4cocn4)cc3)ccn12 [III-51] | – | 10 to 20% | < 30% | – | – | – | – |
| Cc1cc(C)n2ccc(C(=O)NC3CCC4(CCOCC4)CC3)c2n1 [III-140] | – | < 10% | < 30% | – | – | – | – |
| Cc1cc(C)n2ccc(C(=O)Nc3ccc4c(c3)OCO4)c2n1 [III-280] | – | – | – | – | – | – | 0.2 µg/mL (≈ 0.647 µM) |
| Cc1cc(C)n2ccc(C(=O)Nc3ccc(N4CCCCC4)cc3)c2n1 [III-281] | – | – | – | – | – | – | < 0.1 µg/mL |
| CCCOC1CC(CNC(=O)c2ccn3c(C)cc(C)nc23)C1 (stereo not drawn) [III-239] | – | < 10% | < 30% | – | – | – | – |

Other lines, results leading:

| solubility [1] | activation at 0.1 µM [2] | activation at 1 µM [2] | Compound Solubility in Water [1] | Percent Gcase Activation, 0.1 μM Test Compound [2] | Percent Gcase Activation, 1 μM Test Compound [2] | solubility ([1]; in water) | SMILES |
| --- | --- | --- | --- | --- | --- | --- | --- |
| 2.7 µg/mL (≈ 7.47 µM) | > 20% | > 60% | – | – | – | – | C#Cc1ccc(C(C)(C)NC(=O)c2ccn3c(COC)cc(C)nc23)cc1 [III-62] |
| – | – | – | – | *** (greater than 20% Gcase activation) | +++ (Gcase activation greater than 60%) | 0.01 µg/mL (≈ 0.0287 µM) | Cc1cc(C)n2ccc(C(=O)Nc3ccc(-c4cccs4)nc3)c2n1 [III-275] |
| 0.8 µg/mL (≈ 2.5 µM) | > 20% | > 60% | – | – | – | – | Cc1cc(C)n2ccc(C(=O)NC3CCCc4ccccc43)c2n1 (stereo not drawn) [III-167] |
| 0.7 µg/mL (≈ 2.19 µM) | > 20% | > 60% | – | – | – | – | Cc1cc(C)n2ccc(C(=O)N[C@H]3CCCc4ccccc43)c2n1 [III-100] |
| 21 µg/mL (≈ 56.2 µM) | 10 to 20% | > 60% | – | – | – | – | CCCCO[C@H]1CC[C@H](NC(=O)c2ccn3c(COC)cc(C)nc23)CC1 [III-33] |
| 1.9 µg/mL (≈ 5.36 µM) | < 10% | 30 to 60% | – | – | – | – | Cc1cc(C)n2ccc(C(=O)NC3CCN(c4ccsc4)CC3)c2n1 [III-115] |
| 1.4 µg/mL (≈ 4.55 µM) | > 20% | > 60% | – | – | – | – | CC[C@H](NC(=O)c1ccn2c(C)cc(C)nc12)c1ccccc1 [III-164] |
| – | – | – | – | * (less than 10% Gcase activation) | + (less than 30% Gcase activation) | 0.2 µg/mL (≈ 0.577 µM) | Cc1cc(C)n2ccc(C(=O)Nc3ccc(-c4cnn(C)c4)nc3)c2n1 [III-283] |
| 0.3 µg/mL (≈ 0.828 µM) | > 20% | > 60% | – | – | – | – | COCc1cc(C)n2ccc(C(=O)Nc3ccc(-c4cocn4)cc3)c2n1 [III-50] |
| 10.6 µg/mL (≈ 25.4 µM) | > 20% | > 60% | – | – | – | – | CCCCCO[C@H]1CC[C@H](NC(=O)c2ccn3c(COC)cc(COC)nc23)CC1 [III-154] |
| 1.1 µg/mL (≈ 3.75 µM) | > 20% | > 60% | – | – | – | – | Cc1cc(C)n2ccc(C(=O)N[C@H](C)c3ccccc3)c2n1 [III-165] |
| 18 µg/mL (≈ 44.8 µM) | 10 to 20% | > 60% | – | – | – | – | CCCCO[C@H]1CC[C@H](NC(=O)c2ccn3c(C(C)C)cc(COC)nc23)CC1 [III-37] |
| < 1.5 µg/mL | < 10% | 30 to 60% | – | – | – | – | Cc1cc(C)n2ccc(C(=O)Nc3ccc(-c4cocn4)nc3)c2n1 [III-3] |
| – | < 10% | – | – | – | – | – | Cc1cc(C)n2ccc(C(=O)NC3CCC(Oc4cc(C)on4)C3)c2n1 (stereo not drawn) [III-243] |
| 1.9 µg/mL (≈ 5.38 µM) | > 20% | > 60% | – | – | – | – | Cc1cc(C)n2ccc(C(=O)NC3(C)CCOc4c(F)cccc43)c2n1 (stereo not drawn) [III-133] |
| 1.2 µg/mL (≈ 3.9 µM) | > 20% | > 60% | – | – | – | – | CC[C@@H](NC(=O)c1ccn2c(C)cc(C)nc12)c1ccccc1 [III-124] |
| 25.4 µg/mL (≈ 81 µM) | < 10% | < 30% | – | – | – | – | Cc1cc(C)n2ccc(C(=O)NC3CCC4(CCCO4)C3)c2n1 (stereo not drawn) [III-146] |
| – | < 10% | < 30% | – | – | – | – | COCc1cc(C(C)C)n2ccc(C(=O)NC3(C)CCCc4ncncc43)c2n1 (stereo not drawn) [III-32] |
| – | – | – | – | – | +++ (Gcase activation greater than 60%) | – | Cc1cc(C)n2ccc(C(=O)NC3CCC(Oc4cc(C)on4)C3)c2n1 (stereo not drawn) [III-244] |
| – | > 20% | > 60% | – | – | – | – | Cc1cc(C)n2ccc(C(=O)NC3CCCC(Oc4cccs4)C3)c2n1 (stereo not drawn) [III-191] |
| – | > 20% | > 60% | – | – | – | – | Cc1cc(C)n2ccc(C(=O)N[C@@H](C)c3ccc(F)cc3)c2n1 [III-78] |
| – | < 10% | < 30% | – | – | – | – | Cc1cc(C(F)(F)F)nc2c(C(=O)NC3(C)CCCc4ncncc43)ccn12 (stereo not drawn) [III-250] |
| – | > 20% | > 60% | – | – | – | – | Cc1cc(C)n2ccc(C(=O)N[C@@H](C)c3ccccc3F)c2n1 [III-77] |
| – | < 10% | < 30% | – | – | – | – | Cc1cc(C)n2ccc(C(=O)NC3(C)CCCc4ncncc43)c2n1 (stereo not drawn) [III-175] |
| – | – | – | – | – | – | 0.7 µg/mL (≈ 2.09 µM) | COCC#Cc1ccc(NC(=O)c2ccn3c(C)cc(C)nc23)cn1 [III-282] |
| – | < 10% | < 30% | – | – | – | – | COCc1cc(C(C)C)nc2c(C(=O)NC3(C)CCCc4ncncc43)ccn12 (stereo not drawn) [III-31] |
